# Measurements taken from doi:10.1101/2025.11.11.687791v2, “Structural basis for multiple binding modes of antimalarial ligands targeting Plasmodium falciparum NCR1” (biorxiv, 2026).
# What was measured:
# Type in all cases: binding
# PfNCR1 [1] = target: T1, PfNCR1 (Plasmodium falciparum, UniProt Q8I266); assay: cryo-EM structure of the complex; conditions: ecto site, alongside CHS; GDN
# T1 construct: gene NCR1; CHS added for structural samples
# T1 sequence (Q8I266 1-1470): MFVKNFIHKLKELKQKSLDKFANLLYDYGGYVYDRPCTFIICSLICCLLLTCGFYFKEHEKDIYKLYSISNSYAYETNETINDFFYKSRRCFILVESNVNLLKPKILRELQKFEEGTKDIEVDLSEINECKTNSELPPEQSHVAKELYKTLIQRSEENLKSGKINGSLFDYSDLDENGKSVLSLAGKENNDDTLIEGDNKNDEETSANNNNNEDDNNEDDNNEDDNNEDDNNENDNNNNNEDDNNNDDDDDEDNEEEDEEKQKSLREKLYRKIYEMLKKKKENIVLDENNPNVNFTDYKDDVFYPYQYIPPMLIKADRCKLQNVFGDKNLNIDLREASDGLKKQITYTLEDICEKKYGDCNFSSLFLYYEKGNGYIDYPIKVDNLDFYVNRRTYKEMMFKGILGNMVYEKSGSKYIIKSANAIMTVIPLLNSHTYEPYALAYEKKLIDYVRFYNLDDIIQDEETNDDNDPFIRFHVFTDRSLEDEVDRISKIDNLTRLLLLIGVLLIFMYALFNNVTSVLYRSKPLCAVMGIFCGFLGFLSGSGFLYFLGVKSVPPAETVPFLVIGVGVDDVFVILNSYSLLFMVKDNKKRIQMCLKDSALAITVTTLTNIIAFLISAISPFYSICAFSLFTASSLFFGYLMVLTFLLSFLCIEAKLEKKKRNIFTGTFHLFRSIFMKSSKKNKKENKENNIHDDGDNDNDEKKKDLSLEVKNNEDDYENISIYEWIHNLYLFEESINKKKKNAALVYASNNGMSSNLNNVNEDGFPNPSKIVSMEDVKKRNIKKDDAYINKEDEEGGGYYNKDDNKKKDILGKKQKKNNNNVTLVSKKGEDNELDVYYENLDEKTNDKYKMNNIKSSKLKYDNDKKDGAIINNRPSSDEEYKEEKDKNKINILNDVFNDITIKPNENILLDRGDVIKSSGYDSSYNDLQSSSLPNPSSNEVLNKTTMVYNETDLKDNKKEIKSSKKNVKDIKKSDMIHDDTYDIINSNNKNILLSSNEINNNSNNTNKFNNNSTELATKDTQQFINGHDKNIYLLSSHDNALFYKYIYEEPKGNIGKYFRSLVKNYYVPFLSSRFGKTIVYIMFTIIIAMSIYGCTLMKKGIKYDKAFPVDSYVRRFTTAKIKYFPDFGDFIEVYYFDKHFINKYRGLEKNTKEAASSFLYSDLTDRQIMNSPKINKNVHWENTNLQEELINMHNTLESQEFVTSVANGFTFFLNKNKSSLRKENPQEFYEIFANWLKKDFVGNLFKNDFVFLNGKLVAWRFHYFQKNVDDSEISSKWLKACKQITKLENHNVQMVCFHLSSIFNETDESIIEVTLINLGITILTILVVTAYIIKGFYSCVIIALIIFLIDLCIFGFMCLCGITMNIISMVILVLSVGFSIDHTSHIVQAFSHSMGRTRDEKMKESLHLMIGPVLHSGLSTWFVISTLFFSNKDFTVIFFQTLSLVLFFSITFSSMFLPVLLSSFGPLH
# PfNCR1 [2] = target: T1, PfNCR1; assay: cryo-EM structure of the complex, […] Å; conditions: 1 mM compound; ecto site, displaces CHS
# PfNCR1 [3] = target: T1, PfNCR1; assay: tryptophan fluorescence quenching; conditions: purified protein in GDN; ecto site
Compound,cryo-EM structure of the complex (PfNCR1 [1]),"cryo-EM structure of the complex, 3.69 Å (PfNCR1 [2])",apparent Kd (PfNCR1 [3])
"COc1ccc(N2CCN(C(CNC(=O)c3c(F)cccc3F)c3ccc4c(c3)OCO4)CC2)cc1 (stereo not drawn) [Compound 4, G856-4236]",the new compound was bound to the ecto site without displacing the sterol,,
"CC(C)c1cccc(C(NC(=O)C2Cc3ccccc3CN2C(=O)c2cccc(N3CCOCC3)c2)C2CCCC2)c1 (stereo not drawn) [Compound 2, MMV028038]",,this ligand completely displaces the CHS molecule in the ECD sterol site,tryptophan quenching-based binding assays revealed the apparent Kd values in the micromolar range
